target: T1, glucocorticoid receptor (Homo sapiens, UniProt P04150); test: Glucocorticoid Receptor Binding Assay ([3H]-dexamethasone displacement, A549 cell extract); conditions: A549 human lung epithelial cell extract, 1.86 nM [3H]-dexamethasone; read-out: GR Ki
T1 construct: host or cells: A549 human lung epithelial cells (sonicated cell extract)
T1 sequence (P04150 1-777): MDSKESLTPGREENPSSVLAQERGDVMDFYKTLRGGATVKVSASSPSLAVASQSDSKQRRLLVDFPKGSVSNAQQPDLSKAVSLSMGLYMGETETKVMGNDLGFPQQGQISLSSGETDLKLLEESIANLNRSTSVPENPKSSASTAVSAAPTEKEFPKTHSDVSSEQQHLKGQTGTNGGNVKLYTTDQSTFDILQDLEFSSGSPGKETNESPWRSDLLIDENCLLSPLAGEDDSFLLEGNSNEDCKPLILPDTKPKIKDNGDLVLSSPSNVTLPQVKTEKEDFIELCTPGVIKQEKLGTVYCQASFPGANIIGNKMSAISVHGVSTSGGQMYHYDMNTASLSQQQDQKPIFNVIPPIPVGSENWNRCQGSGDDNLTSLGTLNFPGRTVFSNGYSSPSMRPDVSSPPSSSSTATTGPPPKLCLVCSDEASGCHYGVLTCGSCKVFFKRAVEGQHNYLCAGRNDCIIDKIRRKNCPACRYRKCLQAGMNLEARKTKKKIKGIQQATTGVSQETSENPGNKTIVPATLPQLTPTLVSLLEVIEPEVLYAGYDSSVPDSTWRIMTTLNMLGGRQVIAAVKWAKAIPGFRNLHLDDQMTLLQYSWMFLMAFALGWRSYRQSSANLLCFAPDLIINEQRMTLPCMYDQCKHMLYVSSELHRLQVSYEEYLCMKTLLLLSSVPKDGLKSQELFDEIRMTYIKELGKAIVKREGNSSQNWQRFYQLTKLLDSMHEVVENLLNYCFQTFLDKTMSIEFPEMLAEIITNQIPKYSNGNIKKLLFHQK
Method in brief: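 A549 cell extract (50-200 ug; buffer 50 mM Tris-HCl pH 7.2 with glycerol, NaCl, MgCl2, EDTA, 10 mM molybdate) incubated with 1.86 nM [3H]-dexamethasone and test compound, 16 h at 4 °C. Unbound ligand removed with dextran-coated charcoal; bound radioactivity counted. IC50 converted to Ki via Cheng-Prusoff.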

Row | Structure (SMILES) | Ki [nM]
1 | Cc1cc(C2(c3cc(C)c(O)c(C)c3)C(=O)N(c3ccccc3)c3ccccc32)cc(C)c1O [Example 126, 3,3-Bis-(4-hydroxy-3,5-dimethyl-phenyl)-1-phenyl-1,3-dihydro-indol-2-one] | ≤ 500
2 | Cc1cc(C2(c3cc(C)c(O)c(C)c3)C(=O)N(c3cccc(C(F)(F)F)c3)c3ccccc32)cc(C)c1O [Example 127, 3,3-Bis-(4-hydroxy-3,5-dimethyl-phenyl)-1-(3-trifluoromethyl-phenyl)-1,3-dihydro-indol-2-one] | ≤ 500
3 | Cc1cc(C2(c3cc(C)c(O)c(C)c3)C(=O)N(c3ccccc3Cl)c3ccccc32)cc(C)c1O [Example 129, 1-(2-Chloro-phenyl)-3,3-bis-(4-hydroxy-3,5-dimethyl-phenyl)-1,3-dihydro-indol-2-one] | ≤ 500
4 | Cc1cc(C2(c3cc(C)c(O)c(C)c3)C(=O)N(c3cccc(F)c3)c3ccccc32)cc(C)c1O [Example 130, 1-(3-Fluoro-phenyl)-3,3-bis-(4-hydroxy-3,5-dimethyl-phenyl)-1,3-dihydro-indol-2-one] | ≤ 500
5 | Cc1cc(C2(c3cc(C)c(O)c(C)c3)C(=O)N(c3ccc(C(F)(F)F)cc3)c3ccccc32)cc(C)c1O [Example 131, 3,3-Bis-(4-hydroxy-3,5-dimethyl-phenyl)-1-(4-trifluoromethyl-phenyl)-1,3-dihydro-indol-2-one] | ≤ 500
6 | Cc1ccccc1N1C(=O)C(c2cc(C)c(O)c(C)c2)(c2cc(C)c(O)c(C)c2)c2ccccc21 [Example 132, 3,3-Bis-(4-hydroxy-3,5-dimethyl-phenyl)-1-o-tolyl-1,3-dihydro-indo 1-2-one] | ≤ 500
7 | Cc1cccc(N2C(=O)C(c3cc(C)c(O)c(C)c3)(c3cc(C)c(O)c(C)c3)c3ccccc32)c1 [Example 133, 3,3-Bis-(4-hydroxy-3,5-dimethyl-phenyl)-1-m-tolyl-1,3-dihydro-indol-2-one] | ≤ 500
8 | Cc1cc(C2(c3cc(C)c(O)c(C)c3)C(=O)N(c3ccncc3)c3ccccc32)cc(C)c1O [Example 136, 3,3-Bis-(4-hydroxy-3,5-dimethyl-phenyl)-1-pyridin-4-yl-1,3-dihydro-indol-2-one] | ≤ 500
9 | CCOc1cccc(N2C(=O)C(c3cc(C)c(O)c(C)c3)(c3cc(C)c(O)c(C)c3)c3ccccc32)c1 [Example 137, 1-(3-Ethoxy-phenyl)-3,3-bis-(4-hydroxy-3,5-dimethyl-phenyl)-1,3-dihydro-indol-2-one] | ≤ 500
10 | Cc1cc(C2(c3cc(C)c(O)c(C)c3)C(=O)N(c3cccc(C(C)C)c3)c3ccccc32)cc(C)c1O [Example 138, 3,3-Bis-(4-hydroxy-3,5-dimethyl-phenyl)-1-(3-isopropyl-phenyl)-1,3-dihydro-indol-2-one] | ≤ 500

The next lines start with the values.

Row | Ki [nM] | Structure (SMILES)
11 | ≤ 500 | COc1ccc(N2C(=O)C(c3cc(C)c(O)c(C)c3)(c3cc(C)c(O)c(C)c3)c3ccccc32)cc1OC [Example 140, 1-(3,4-Dimethoxy-phenyl)-3,3-bis-(4-hydroxy-3,5-dimethyl-phenyl)-1,3-dihydro-indol-2-one]
12 | ≤ 500 | COC(=O)c1cccc(-c2noc(CN3C(=O)C(c4cc(C)c(O)c(C)c4)(c4cc(C)c(O)c(C)c4)c4ccccc43)n2)c1 [Example 141, 3-{5-[3,3-Bis-(4-hydroxy-3,5-dimethyl-phenyl)-2-oxo-2,3-dihydro-indol-1-ylmethyl]-[1,2,4]oxadiazol-3-yl}-benzoic acid methyl ester]
13 | ≤ 1000 | COc1ccc(-c2noc(CN3C(=O)C(c4cc(C)c(O)c(C)c4)(c4cc(C)c(O)c(C)c4)c4ccccc43)n2)cc1 [Example 142, 3,3-Bis-(4-hydroxy-3,5-dimethyl-phenyl)-1-[3-(4-methoxy-phenyl)-[1,2,4]oxadiazol-5-ylmethyl]-1,3-dihydro-indol-2-one]
14 | ≤ 500 | COc1nccc(N2C(=O)C(c3cc(C)c(O)c(C)c3)(c3cc(C)c(O)c(C)c3)c3ccccc32)n1 [Example 143, 3,3-Bis-(4-hydroxy-3,5-dimethyl-phenyl)-1-(2-methoxy-pyrimidin-4-yl)-1,3-dihydro-indol-2-one]
